Columns and labels:
[1] = target: T1, OATP1B3 (Homo sapiens, UniProt Q9NPD5); test: concentration-dependent uptake in HEK293T cells, LC-MS; type: cell-based
T1 construct: gene SLCO1B3; stably expressed in HEK293T cells (Shanghai Genechem), sodium butyrate induced
T1 sequence (Q9NPD5 1-702): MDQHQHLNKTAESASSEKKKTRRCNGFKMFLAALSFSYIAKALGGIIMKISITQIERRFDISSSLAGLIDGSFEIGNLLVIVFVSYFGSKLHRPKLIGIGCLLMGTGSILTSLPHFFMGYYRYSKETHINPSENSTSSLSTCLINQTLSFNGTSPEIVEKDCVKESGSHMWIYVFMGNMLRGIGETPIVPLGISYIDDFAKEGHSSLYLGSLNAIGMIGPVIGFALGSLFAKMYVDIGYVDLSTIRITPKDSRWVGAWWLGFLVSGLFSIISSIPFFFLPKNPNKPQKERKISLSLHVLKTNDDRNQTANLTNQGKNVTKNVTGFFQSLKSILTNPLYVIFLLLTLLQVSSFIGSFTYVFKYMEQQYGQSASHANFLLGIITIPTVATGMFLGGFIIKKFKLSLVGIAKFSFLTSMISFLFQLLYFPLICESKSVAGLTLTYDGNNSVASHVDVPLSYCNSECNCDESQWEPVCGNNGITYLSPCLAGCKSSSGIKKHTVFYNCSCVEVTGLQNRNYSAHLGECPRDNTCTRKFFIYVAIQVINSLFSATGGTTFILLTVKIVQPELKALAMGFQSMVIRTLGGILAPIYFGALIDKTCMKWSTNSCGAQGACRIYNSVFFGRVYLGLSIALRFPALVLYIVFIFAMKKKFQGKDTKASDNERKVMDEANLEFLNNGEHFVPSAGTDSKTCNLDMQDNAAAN
Excerpt: concentration-dependent uptake in HEK293T cells, LC-MS on OATP1B3 | uptake process of OPD for OATP1B3 followed a typical Michaelis-Menten equation

[2] = target: T1, OATP1B3; test: inhibition of ophiopogonin D uptake in HEK293T cells, LC-MS; type: cell-based
Excerpt: inhibition of ophiopogonin D uptake in HEK293T cells, LC-MS on OATP1B3

Compound	Km [1] [µM]	IC50 [2] [nM]
C[C@@H]1CC[C@@]2(OC1)O[C@H]1C[C@H]3[C@@H]4CC=C5C[C@@H](O)C[C@@H](O[C@@H]6O[C@H](C)[C@H](O)[C@H](O[C@@H]7OC[C@@H](O)[C@H](O)[C@H]7O)[C@H]6O[C@@H]6O[C@@H](C)[C@H](O)[C@@H](O)[C@H]6O)[C@]5(C)[C@H]4CC[C@]3(C)[C@H]1[C@@H]2C [Ophiopogonin D]	11.3	–
CC(C)=CCC[C@](C)(O[C@@H]1O[C@H](CO[C@@H]2O[C@H](CO)[C@@H](O)[C@H](O)[C@H]2O)[C@@H](O)[C@H](O)[C@H]1O)[C@H]1CC[C@]2(C)[C@@H]1[C@H](O)C[C@@H]1[C@@]3(C)CC[C@H](O[C@@H]4O[C@H](CO)[C@@H](O)[C@H](O)[C@H]4O[C@@H]4O[C@H](CO)[C@@H](O)[C@H](O)[C@H]4O)C(C)(C)[C@@H]3CC[C@]12C [ginsenoside Rb1]	–	570
CC(C)=CCC[C@](C)(O[C@@H]1O[C@H](CO)[C@@H](O)[C@H](O)[C@H]1O)[C@H]1CC[C@]2(C)[C@@H]1[C@H](O)C[C@@H]1[C@@]3(C)CC[C@H](O[C@@H]4O[C@H](CO)[C@@H](O)[C@H](O)[C@H]4O[C@@H]4O[C@H](CO)[C@@H](O)[C@H](O)[C@H]4O)C(C)(C)[C@@H]3CC[C@]12C [ginsenoside Rd]	–	320
